For one series, the system named is Anas platyrhynchos. The conditions noted are these: oral, mortality.
The next series deals with Apis mellifera. The conditions noted are these: acute; oral; unspecified; mortality.
Another series concerns Bibionidae. The conditions noted are these: chronic/long-term; duration: 28 days; development.
The subject of a further series is Daphnia magna. The conditions noted are these: chronic/long-term; duration: 21 days.
For a further series, the system named is Folsomia candida. The conditions noted are these: chronic/long-term; duration: 28 days; mortality.
In another series the test system is Tagia sp. The conditions noted are these: acute, duration: 14 days.
The subject of series [1] is Typhlodromus pyri. The conditions noted are these: chronic/long-term; mortality.
For series [2], the system named is Typhlodromus pyri. Briefly: LR50; higher = less toxic. The conditions noted are these: not reported; mortality.
The mark [3] stands for this setting: reproduction developmental, reproduction.

Values after ≈ are worked out from the molar mass of the structure shown.

With `CC1(C)[C@H](C(=O)O[C@H](C#N)c2cccc(Oc3ccccc3)c2)[C@@H]1/C=C\C(=O)OC(C(F)(F)F)C(F)(F)F` [Acrinathrin], the LD50 is above 2000 mg/kg-day in the series on Anas platyrhynchos (acute, unspecified); 0.077 µg/piece in the series on Apis mellifera; above 2250 mg/kg-day in the series with Colinus virginianus (acute, oral, mortality); above 5000 mg/kg-day in the series with Rattus norvegicus (acute, oral, mortality). Also, the NOEC was 173 mg/kg-day in the series on Anas platyrhynchos (short-term, feed); 3.1e-05 mg/L in the series with Bibionidae; 19.9 mg/kg-day in the series on Colinus virginianus (setting [3]); 325 mg/kg-day in the series with Colinus virginianus (short-term, oral, diet, mortality); 3.2e-06 mg/L with Daphnia magna; below 1 mg/kg in the series with Folsomia candida. In addition, the NOEC with Pimephales promelas (chronic/long-term, duration: 21 days) came to 1.1e-05 mg/L; in the series on Tagia sp., 1.6 mg/kg; in the series with Typhlodromus pyri [1] it was 0.00068 g/ha. In addition, the LC50 was 1.7 ng/mL (≈ 3.14 nM) in the series on Pimephales promelas (acute, duration: 96 hours, mortality) and above 1000 mg/kg in the series with Tagia sp. (mortality). Further, the NOAEL (commonly the highest tested level that showed no adverse finding) in the series on Rattus norvegicus (acute, neurology) worked out at 1 mg/kg-day; in the series with Rattus norvegicus (setting [3]), 9.4 mg/kg-day. The same compound came in with an NOEL in the series with Rattus norvegicus (setting [3]) of 2.5 mg/kg-day. This compound displayed an LR50 with Typhlodromus pyri [2] of 0.006 g/ha.

(Values after EPA's ToxValDB 9.5 (doi:10.2903/j.efsa.2010.1872).)
